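Interpolation was linear, between the two tested concentrations surrounding the appropriate level; five concentrations were tested over 48 hours in 96-well plates. The concentration for 50% growth inhibition is given as GI50. At the TGI there is no net growth.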
Key:
Assay in all cases: NCI-60 cell line screen, 48 h
786-0 renal = system: 786-0 renal
A549 NSCLC = system: A549 NSCLC
ACHN renal = system: ACHN renal
BT-549 breast = system: BT-549 breast
CAKI-1 renal = system: CAKI-1 renal
CCRF-CEM leukemia = system: CCRF-CEM leukemia
COLO 205 colon = system: COLO 205 colon
EKVX NSCLC = system: EKVX NSCLC
HCT-116 colon = system: HCT-116 colon
HCT-15 colon = system: HCT-15 colon
HL-60(TB) leukemia = system: HL-60(TB) leukemia
HOP-62 NSCLC = system: HOP-62 NSCLC
HOP-92 NSCLC = system: HOP-92 NSCLC
HS 578T breast = system: HS 578T breast
HT29 colon = system: HT29 colon
IGROV1 ovarian = system: IGROV1 ovarian
K-562 leukemia = system: K-562 leukemia
KM12 colon = system: KM12 colon
M14 melanoma = system: M14 melanoma
MALME-3M melanoma = system: MALME-3M melanoma
MCF7 breast = system: MCF7 breast
MDA-MB-231 breast = system: MDA-MB-231 breast
MDA-MB-435 = system: MDA-MB-435
MOLT-4 leukemia = system: MOLT-4 leukemia
NCI-H226 lung = system: NCI-H226 lung
NCI-H23 lung = system: NCI-H23 lung
NCI-H460 lung = system: NCI-H460 lung
NCI-H522 lung = system: NCI-H522 lung
NCI/ADR-RES ovarian = system: NCI/ADR-RES ovarian
OVCAR-4 ovarian = system: OVCAR-4 ovarian
OVCAR-5 ovarian = system: OVCAR-5 ovarian
OVCAR-8 ovarian = system: OVCAR-8 ovarian
PC-3 prostate = system: PC-3 prostate
RXF 393 renal = system: RXF 393 renal
SF-268 CNS = system: SF-268 CNS
SF-539 CNS = system: SF-539 CNS
SK-MEL-2 melanoma = system: SK-MEL-2 melanoma
SK-MEL-28 melanoma = system: SK-MEL-28 melanoma
SK-OV-3 ovarian = system: SK-OV-3 ovarian
SN12C renal = system: SN12C renal
SNB-19 CNS = system: SNB-19 CNS
SNB-75 CNS = system: SNB-75 CNS
T-47D breast = system: T-47D breast
TK-10 renal = system: TK-10 renal
U251 CNS = system: U251 CNS
UACC-257 melanoma = system: UACC-257 melanoma
UO-31 renal = system: UO-31 renal

Compound `CC12CCC(=O)C(O1)C1C(=O)c3cc4ccccc4cc3C(=O)C12` (centres undefined) has a GI50 (786-0 renal) of 16.3 µM, a TGI (786-0 renal) of 30 µM and a GI50 (A549 NSCLC) of 32.4 µM. For the same compound, the TGI (A549 NSCLC) was over 100 µM, the GI50 (ACHN renal) was 15.8 µM and the TGI (ACHN renal) was 31.1 µM. It also gave a GI50 (BT-549 breast) of 23.7 µM, a TGI (BT-549 breast) of 58.6 µM and a GI50 (CAKI-1 renal) of 4.94 µM. The TGI (CAKI-1 renal) was 25.6 µM, the GI50 (CCRF-CEM leukemia) was 11.4 µM and the TGI (CCRF-CEM leukemia) was 31 µM. For the same compound, the GI50 (COLO 205 colon) was 19.9 µM, the TGI (COLO 205 colon) was 47.1 µM and the GI50 (EKVX NSCLC) was 23.4 µM. It also gave a TGI (EKVX NSCLC) of 72.2 µM, a GI50 (HCT-116 colon) of 17.7 µM and a TGI (HCT-116 colon) of 34.6 µM. For the same compound, the GI50 (HCT-15 colon) was 17.3 µM, the TGI (HCT-15 colon) was 36.8 µM and the GI50 (HL-60(TB) leukemia) was 19.5 µM. It also gave a TGI (HL-60(TB) leukemia) of 48 µM, a GI50 (HOP-62 NSCLC) of 45 µM and a TGI (HOP-62 NSCLC) of over 100 µM. For the same compound, the GI50 (HOP-92 NSCLC) was 13.9 µM, the TGI (HOP-92 NSCLC) was 29.7 µM and the GI50 (HS 578T breast) was 28.7 µM. It also gave a TGI (HS 578T breast) of 73.1 µM, a GI50 (HT29 colon) of 21 µM and a TGI (HT29 colon) of 51.1 µM. It also gave a GI50 (IGROV1 ovarian) of 23.9 µM, a TGI (IGROV1 ovarian) of over 100 µM and a GI50 (K-562 leukemia) of 16 µM. For the same compound, the TGI (K-562 leukemia) was 41.5 µM, the GI50 (KM12 colon) was 12.5 µM and the TGI (KM12 colon) was 29.5 µM. It also gave a GI50 (M14 melanoma) of 21.5 µM, a TGI (M14 melanoma) of 53.3 µM and a GI50 (MALME-3M melanoma) of 12.9 µM. The TGI (MALME-3M melanoma) was 29.5 µM, the GI50 (MCF7 breast) was 12.6 µM and the TGI (MCF7 breast) was 33 µM. It also gave a GI50 (MDA-MB-231 breast) of 14.9 µM, a TGI (MDA-MB-231 breast) of 35.6 µM and a GI50 (MDA-MB-435) of 17.7 µM. For the same compound, the TGI (MDA-MB-435) was 34 µM, the GI50 (MOLT-4 leukemia) was 10.4 µM and the TGI (MOLT-4 leukemia) was 74.1 µM. It also gave a GI50 (NCI-H226 lung) of 14.4 µM, a TGI (NCI-H226 lung) of 41.9 µM and a GI50 (NCI-H23 lung) of 15.8 µM. It also gave a TGI (NCI-H23 lung) of 31.6 µM, a GI50 (NCI-H460 lung) of 14 µM and a TGI (NCI-H460 lung) of 51 µM. For the same compound, the GI50 (NCI-H522 lung) was 21.9 µM, the TGI (NCI-H522 lung) was 52.3 µM and the GI50 (NCI/ADR-RES ovarian) was 21.3 µM. For the same compound, the TGI (NCI/ADR-RES ovarian) was 57.2 µM, the GI50 (OVCAR-4 ovarian) was 12.2 µM and the TGI (OVCAR-4 ovarian) was 41.2 µM. The GI50 (OVCAR-5 ovarian) was 29.3 µM, the TGI (OVCAR-5 ovarian) was 69.6 µM and the GI50 (OVCAR-8 ovarian) was 22.1 µM. For the same compound, the TGI (OVCAR-8 ovarian) was 54.9 µM, the GI50 (PC-3 prostate) was 16.8 µM and the TGI (PC-3 prostate) was 43.4 µM. It also gave a GI50 (RXF 393 renal) of 2.5 µM, a TGI (RXF 393 renal) of 14.6 µM and a GI50 (SF-268 CNS) of 16.1 µM. For the same compound, the TGI (SF-268 CNS) was 53 µM, the GI50 (SF-539 CNS) was 21.8 µM and the TGI (SF-539 CNS) was 59.3 µM. The GI50 (SK-MEL-2 melanoma) was 46.4 µM, the TGI (SK-MEL-2 melanoma) was over 100 µM and the GI50 (SK-MEL-28 melanoma) was 20.3 µM. The TGI (SK-MEL-28 melanoma) was 74.4 µM, the GI50 (SK-OV-3 ovarian) was 46.6 µM and the TGI (SK-OV-3 ovarian) was over 100 µM. It also gave a GI50 (SN12C renal) of 16.5 µM, a TGI (SN12C renal) of 36.4 µM and a GI50 (SNB-19 CNS) of 38.1 µM. It also gave a TGI (SNB-19 CNS) of over 100 µM, a GI50 (SNB-75 CNS) of 29.2 µM and a TGI (SNB-75 CNS) of over 100 µM. For the same compound, the GI50 (T-47D breast) was 14.9 µM, the TGI (T-47D breast) was 39.4 µM and the GI50 (TK-10 renal) was 16.6 µM. For the same compound, the TGI (TK-10 renal) was 33.6 µM, the GI50 (U251 CNS) was 19 µM and the TGI (U251 CNS) was 43.7 µM. It also gave a GI50 (UACC-257 melanoma) of 16.2 µM, a TGI (UACC-257 melanoma) of 32.5 µM and a GI50 (UO-31 renal) of 42.5 µM. The TGI (UO-31 renal) was over 100 µM.

Reference: PubChem BioAssay (NCI)
